# Laboratory results as given in PubChem BioAssay (NCI).
#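 GI50: concentration for 50% inhibition of growth. Definition used: TGI = concentration required for complete inhibition of growth.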
# Columns and labels:
# Experiment in all cases: NCI anticancer screen, dose series, 384-well format
# [1] = system: MCF7 breast
# [2] = system: M14 melanoma
# [3] = system: A498 renal
# [4] = system: OVCAR-3 ovarian
# [5] = system: HCT-15 colon
# [6] = system: SR leukemia
# [7] = system: RPMI-8226 leukemia
# [8] = system: TK-10 renal
# [9] = system: HL-60(TB) leukemia
# [10] = system: SN12C renal
# [11] = system: NCI-H23 lung
# [12] = system: MDA-MB-231 breast
# [13] = system: SK-MEL-28 melanoma
# [14] = system: SF-295 CNS
# [15] = system: BT-549 breast
# [16] = system: HOP-92 NSCLC
# [17] = system: K-562 leukemia
# [18] = system: IGROV1 ovarian
# [19] = system: A549 NSCLC
# [20] = system: NCI-H226 lung
# [21] = system: MDA-MB-468 breast
# [22] = system: T-47D breast
# [23] = system: UO-31 renal
# [24] = system: SNB-19 CNS
# [25] = system: UACC-62 melanoma
# [26] = system: NCI-H460 NSCLC
# [27] = system: OVCAR-5 ovarian
# [28] = system: NCI-H522 lung
# [29] = system: UACC-257 melanoma
compound,measurement,setting,value
CN(C)CC[C@H](CSc1ccccc1)Nc1ccc(S(=O)(=O)NC(=O)c2ccc(N3CCN(Cc4ccccc4-c4ccc(Cl)cc4)CC3)cc2)cc1[N+](=O)[O-],TGI,[1],4.93 µM
same,GI50,[2],2.79 µM
same,TGI,[2],8.57 µM
same,GI50,[3],1.42 µM
same,TGI,[3],2.98 µM
same,GI50,[4],1.63 µM
same,TGI,[4],3.37 µM
same,GI50,[5],1.68 µM
same,TGI,[5],3.17 µM
same,GI50,[6],0.223 µM
same,TGI,[6],1.48 µM
same,GI50,[7],0.239 µM
same,TGI,[7],0.444 µM
same,GI50,[8],1.98 µM
same,TGI,[8],4.79 µM
same,GI50,[9],0.0477 µM
same,TGI,[9],0.218 µM
same,GI50,[10],2.26 µM
same,TGI,[10],5.79 µM
same,GI50,[11],2.37 µM
same,TGI,[11],7.46 µM
same,GI50,[12],1.04 µM
same,TGI,[12],2.39 µM
same,GI50,[13],2.77 µM
same,TGI,[13],6.76 µM
same,GI50,[14],2.46 µM
same,TGI,[14],6.83 µM
same,GI50,[15],2.23 µM
same,TGI,[15],6.13 µM
same,GI50,[16],0.177 µM
same,TGI,[16],1.05 µM
same,GI50,[17],2.17 µM
same,TGI,[17],5.21 µM
same,GI50,[18],1.48 µM
same,TGI,[18],3.59 µM
same,GI50,[19],3.14 µM
same,TGI,[19],53.2 µM
same,GI50,[20],1.66 µM
same,TGI,[20],3.86 µM
same,GI50,[21],1.33 µM
same,TGI,[21],3.42 µM
same,GI50,[22],2.41 µM
same,TGI,[22],9.13 µM
same,GI50,[23],1.79 µM
same,TGI,[23],3.58 µM
same,GI50,[24],3.11 µM
same,TGI,[24],> 100 µM
same,GI50,[25],3.02 µM
same,TGI,[25],10.5 µM
same,GI50,[26],3.65 µM
same,TGI,[26],14.3 µM
same,GI50,[27],2.01 µM
same,TGI,[27],4.19 µM
same,GI50,[28],4.36 µM
same,TGI,[28],60.7 µM
same,GI50,[29],1.49 µM
same,TGI,[29],3.71 µM
